These results are taken from PubChem BioAssay (NCI).

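Protocol summary: plate cells (96-well), add compound at 5 concentrations, incubate 48 h, interpolate endpoints linearly. TGI: total growth inhibition.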 Bounds are passed on as bounds.

Some test systems named below: ACHN renal; SK-MEL-28 melanoma; HOP-62 NSCLC; NCI-H460 lung; M14 melanoma; HT29 colon; T-47D breast; MDA-MB-231 breast; OVCAR-8 ovarian; SF-295 CNS; SR leukemia; COLO 205 colon; IGROV1 ovarian; BT-549 breast; UACC-257 melanoma; SF-268 CNS; SF-539 CNS; UACC-62 melanoma; EKVX NSCLC; NCI/ADR-RES ovarian.
Experiment in all cases: growth of human tumour cells (NCI), 48 h

In the case of `Cc1nn(C(=O)Cc2ccccc2)c2c1C(c1ccc([N+](=O)[O-])cc1)SC(N)=N2` (configuration not stated), the TGI in the assay with ACHN renal, in the assay on SK-MEL-28 melanoma, with HOP-62 NSCLC, in the assay with NCI-H460 lung, in the assay with M14 melanoma and in the assay with HT29 colon was more than 100 µM throughout. Moreover, the TGI in the assay with T-47D breast, in the assay with MDA-MB-231 breast, in the assay with OVCAR-8 ovarian, in the assay with SF-295 CNS, in the assay with SR leukemia and with COLO 205 colon was more than 100 µM in each case. Besides, the TGI in the assay with IGROV1 ovarian, in the assay on BT-549 breast, with UACC-257 melanoma, in the assay on SF-268 CNS, in the assay on SF-539 CNS and in the assay with UACC-62 melanoma was more than 100 µM each time. In the assay on EKVX NSCLC, this compound yielded a TGI of more than 100 µM.
`C1=CCC[C@@H]2CN3CCCC/C=C\CCCC[C@H]4C[C@H](CN(CCCCCCCC1)C4)[C@H]2CC3`: the TGI in the assay with ACHN renal is 17 µM; in the assay on SK-MEL-28 melanoma it was 14.7 µM; in the assay with HOP-62 NSCLC, 15.6 µM; in the assay with NCI-H460 lung, 18.7 µM; with M14 melanoma, 18.7 µM; in the assay on HT29 colon it was 20.8 µM. Further, the TGI was 20.8 µM in the assay on T-47D breast; 16.4 µM in the assay on MDA-MB-231 breast; 17.5 µM with OVCAR-8 ovarian; 16.4 µM in the assay on SF-295 CNS; 20.1 µM with SR leukemia; 16 µM with COLO 205 colon. Besides, the TGI in the assay with IGROV1 ovarian is 18 µM; in the assay on BT-549 breast, 29.8 µM; with UACC-257 melanoma, 18.1 µM; in the assay with SF-268 CNS it was 21.3 µM; in the assay on SF-539 CNS it was 14.9 µM; with UACC-62 melanoma, 16.9 µM. The TGI with EKVX NSCLC was found to be 21.6 µM.
As for `OCC(O)COCn1cc(Cn2ncc3c(NCc4ccccc4)ncnc32)nn1` (configuration not stated), the TGI in the assay with ACHN renal, in the assay on SK-MEL-28 melanoma, in the assay with NCI/ADR-RES ovarian, with HOP-62 NSCLC, with M14 melanoma and in the assay on HT29 colon was more than 100 µM each time. Besides, the TGI in the assay with T-47D breast, in the assay with MDA-MB-231 breast, in the assay on OVCAR-8 ovarian, in the assay with SF-295 CNS, in the assay with SR leukemia and in the assay on COLO 205 colon was more than 100 µM throughout. The TGI in the assay with IGROV1 ovarian is more than 100 µM; with BT-549 breast, more than 100 µM; in the assay with UACC-257 melanoma, more than 100 µM; with SF-268 CNS it was 32.8 µM; in the assay on SF-539 CNS, more than 100 µM; in the assay on UACC-62 melanoma, more than 100 µM. In the assay on EKVX NSCLC, this compound returned a TGI of more than 100 µM.
Turning to `Cc1oc2nc(N(C)C)nc(NN)c2c1C`, the TGI with ACHN renal, with SK-MEL-28 melanoma, in the assay with NCI/ADR-RES ovarian, with HOP-62 NSCLC, in the assay with NCI-H460 lung and with M14 melanoma was more than 100 µM each time. The TGI in the assay on HT29 colon, in the assay on T-47D breast, with MDA-MB-231 breast, in the assay with OVCAR-8 ovarian, with SF-295 CNS and with COLO 205 colon was more than 100 µM each time. Also, the TGI in the assay with IGROV1 ovarian, in the assay with BT-549 breast, in the assay with UACC-257 melanoma, in the assay with SF-268 CNS, with SF-539 CNS and with UACC-62 melanoma was more than 100 µM each time. Besides, in the assay with EKVX NSCLC, the TGI was more than 100 µM.
As for `COC(=O)/C=C\C(C#N)(C#N)N=Cc1cccs1`, the TGI in the assay with ACHN renal turned out to be 4.12 µM; in the assay with SK-MEL-28 melanoma, 26 µM; with NCI/ADR-RES ovarian, 45 µM; in the assay with HOP-62 NSCLC, 32.6 µM; in the assay with NCI-H460 lung, 39.7 µM; with M14 melanoma, 15.4 µM. The TGI worked out at 4.24 µM in the assay with HT29 colon; 7.51 µM in the assay on T-47D breast; 5.74 µM in the assay with MDA-MB-231 breast; 14.4 µM in the assay with OVCAR-8 ovarian; 42.3 µM in the assay on SF-295 CNS; 32 µM in the assay on IGROV1 ovarian. In addition, the TGI is 19.9 µM in the assay on BT-549 breast; 27.6 µM in the assay on UACC-257 melanoma; 32.1 µM with SF-268 CNS; 25.4 µM in the assay on UACC-62 melanoma; 25.2 µM in the assay with EKVX NSCLC.
Turning to `NNC(=O)CC(=O)Nc1ccc(S(=O)(=O)c2ccc(NC(=O)CC(=O)NN)cc2)cc1`, the TGI in the assay on ACHN renal, in the assay with SK-MEL-28 melanoma, in the assay with NCI/ADR-RES ovarian, in the assay on HOP-62 NSCLC, with NCI-H460 lung and in the assay on M14 melanoma was more than 100 µM in each case. Also, the TGI in the assay on HT29 colon, with T-47D breast, with MDA-MB-231 breast, in the assay with OVCAR-8 ovarian, in the assay with SF-295 CNS and in the assay on COLO 205 colon was more than 100 µM in each case. Besides, the TGI with IGROV1 ovarian, in the assay on BT-549 breast, in the assay on UACC-257 melanoma, in the assay with SF-268 CNS, in the assay with SF-539 CNS and in the assay on UACC-62 melanoma was more than 100 µM in each case. Moreover, the TGI with EKVX NSCLC was more than 100 µM.
On to `CCOC(=O)/C(=C\c1cn(C(C)=O)c2ccccc12)P(C)(=O)OCC` (configuration not stated), for which the TGI with ACHN renal, in the assay on SK-MEL-28 melanoma, in the assay with NCI/ADR-RES ovarian, in the assay on HOP-62 NSCLC, with M14 melanoma and in the assay with HT29 colon was more than 100 µM throughout. For the same compound, the TGI in the assay on T-47D breast was more than 100 µM; with MDA-MB-231 breast, 81.7 µM; in the assay with OVCAR-8 ovarian it was more than 100 µM; in the assay with SF-295 CNS, more than 100 µM; in the assay with SR leukemia it was more than 100 µM; in the assay on COLO 205 colon, more than 100 µM. The TGI was more than 100 µM in the assay with IGROV1 ovarian; 61.3 µM in the assay with BT-549 breast; 50.5 µM in the assay on SF-268 CNS; 45.1 µM in the assay on SF-539 CNS; more than 100 µM with UACC-62 melanoma; more than 100 µM in the assay on EKVX NSCLC.
`O=S(=O)(O)c1cc(S(=O)(=O)O)c2c(N=Nc3ccc(S(=O)(=O)O)c4ccccc34)c(O)ccc2c1`: the TGI in the assay on ACHN renal, with SK-MEL-28 melanoma, in the assay with NCI/ADR-RES ovarian, in the assay on HOP-62 NSCLC, with M14 melanoma and in the assay with HT29 colon was more than 100 µM throughout. Also, the TGI in the assay with T-47D breast, in the assay on MDA-MB-231 breast, in the assay on OVCAR-8 ovarian, with SF-295 CNS, with COLO 205 colon and with IGROV1 ovarian was more than 100 µM in each case. Moreover, the TGI in the assay on BT-549 breast, with UACC-257 melanoma, with SF-268 CNS, in the assay on UACC-62 melanoma and in the assay with EKVX NSCLC was more than 100 µM each time.
